# Data taken from ChEMBL document CHEMBL1201862, “PubChem BioAssay data set” (2004).
# Calls of active or inactive are those of the source.
# Tests used:
# [1] = molecular target: Heat shock protein HSP 90-alpha (Homo sapiens, UniProt P07900); assay: Luminescence-based dose response biochemical high throughput screening assay for inhibitors of the Heat Shock Protein 90 (HSP90). [Related pubchem assays: 1831 (Summary AID.), 1846 (Confirmation screen.), 1789 (Primary screen.)]
# [2] = Luminescence Cell-Based Dose Response HTS to Identify Inhibitors of 5'UTR Stem-Loop Driven Prion Protein mRNA Translation in H4 Neuroglioblastoma Cells. [Related pubchem assays: 1827 (Project Summary), 1813 (Primary HTS)]; type: functional
# [3] = molecular target: T1, Oxysterols receptor LXR-beta (Homo sapiens, UniProt P55055); type: functional, cell-based;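 note: agonist activity at LXR measured by a cell-based luminescence readout across a dose range, run as a counterscreen for daf-12 agonists; potency for activation of Gal4-LXR reporter so compounds are agonists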
# T1 sequence (P55055 whole entry): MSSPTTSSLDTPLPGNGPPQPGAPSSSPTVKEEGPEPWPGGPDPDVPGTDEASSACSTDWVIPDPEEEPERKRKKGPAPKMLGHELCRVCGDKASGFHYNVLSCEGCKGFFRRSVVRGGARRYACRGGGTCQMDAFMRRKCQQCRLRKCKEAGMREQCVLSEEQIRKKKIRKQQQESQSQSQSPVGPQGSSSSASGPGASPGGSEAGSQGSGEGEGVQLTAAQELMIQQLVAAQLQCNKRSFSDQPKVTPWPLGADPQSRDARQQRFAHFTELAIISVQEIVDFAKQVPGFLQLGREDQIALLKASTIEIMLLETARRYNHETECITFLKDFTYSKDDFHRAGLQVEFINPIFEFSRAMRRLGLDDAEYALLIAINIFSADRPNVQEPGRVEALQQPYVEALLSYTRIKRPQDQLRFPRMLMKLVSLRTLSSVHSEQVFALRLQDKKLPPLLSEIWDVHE
# [4] = molecular target: 1-phosphatidylinositol 4,5-bisphosphate phosphodiesterase gamma-1 (Homo sapiens, UniProt P19174); assay: Counterscreen for inhibitors of phospholipase C isozymes (PLC-B3): Fluorescence-based biochemical high throughput dose response assay to identify inhibitors of phospholipase C isozymes (PLC-gamma1).
# [5] = molecular target: 1-phosphatidylinositol 4,5-bisphosphate phosphodiesterase beta-3 (Homo sapiens, UniProt Q01970); assay: Fluorescence-based biochemical high throughput dose response assay to identify inhibitors of phospholipase C isozymes (PLC-B3).
# Paired box protein Pax-8 = Paired box protein Pax-8 (Homo sapiens, UniProt Q06710); assay: inhibitors of PAX8-driven TPO luciferase reporter, dose response, RMG-I cells, cherry-pick (AID 687027); type: functional, cell-based;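 note: luciferase reporter driven by Pax8 target thyroperoxidase promoter measured by SteadyGlo luminescence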
# [6] = IGROV1 ovarian cancer cell cytotoxicity, dose response, PAX8 inhibitor project, plate reader, dry powder samples (AID 743043); type: functional, cell-based; conditions: IGROV-1
# [7] = non-specific cell cytotoxicity, dose response, cytotoxicity control for PAX8 inhibitor project, plate reader, dry powder samples (AID 743021); type: functional, cell-based
# [8] = cytotoxicity in OVCAR8 ovarian cancer cells, dose response, PAX8 project, cell-based, plate reader, dry powder samples (AID 743197); type: functional; conditions: OVCAR-8
# [9] = molecular target: Bifunctional protein GlmU (Mycobacterium tuberculosis, UniProt P9WMN3); assay: Inhibitors of Mycobacterial Glucosamine-1-phosphate acetyl transferase (GlmU). Secondary screen.; set-up: species or system Mycobacterium tuberculosis H37Rv
# [10] = Luminescence-based cell-based high throughput dose response assay to identify activators of the DAF-12 from the parasite S. stercoralis (ssDAF-12).; type: functional
# [11] = molecular target: T1, Oxysterols receptor LXR-beta; assay: LXR agonists, Gal4 luciferase reporter, dose response, counter-screen for ssDAF-12 agonist project, cell-based, luminescence, HEK293, S. stercoralis campaign (AID 720737); type: functional; conditions: read-out: IC50 (the source's name)
# [12] = HEK293T cytotoxicity, dose response, cytotoxicity control for miR-122 modulator project, cell-based, activator set, cherry-pick (AID 720690); type: functional;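 note: HEK293T human cells scored for general mammalian cytotoxicity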
# [13] = molecular target: T2, DNA repair and recombination protein RAD54-like (Homo sapiens, UniProt Q92698); assay: inhibitors of human RAD54 branch migration, confirmation, biochemical, fluorescence, cherry-picked samples, dose series (AID 651657); type: functional
# T2 sequence (Q92698 whole entry): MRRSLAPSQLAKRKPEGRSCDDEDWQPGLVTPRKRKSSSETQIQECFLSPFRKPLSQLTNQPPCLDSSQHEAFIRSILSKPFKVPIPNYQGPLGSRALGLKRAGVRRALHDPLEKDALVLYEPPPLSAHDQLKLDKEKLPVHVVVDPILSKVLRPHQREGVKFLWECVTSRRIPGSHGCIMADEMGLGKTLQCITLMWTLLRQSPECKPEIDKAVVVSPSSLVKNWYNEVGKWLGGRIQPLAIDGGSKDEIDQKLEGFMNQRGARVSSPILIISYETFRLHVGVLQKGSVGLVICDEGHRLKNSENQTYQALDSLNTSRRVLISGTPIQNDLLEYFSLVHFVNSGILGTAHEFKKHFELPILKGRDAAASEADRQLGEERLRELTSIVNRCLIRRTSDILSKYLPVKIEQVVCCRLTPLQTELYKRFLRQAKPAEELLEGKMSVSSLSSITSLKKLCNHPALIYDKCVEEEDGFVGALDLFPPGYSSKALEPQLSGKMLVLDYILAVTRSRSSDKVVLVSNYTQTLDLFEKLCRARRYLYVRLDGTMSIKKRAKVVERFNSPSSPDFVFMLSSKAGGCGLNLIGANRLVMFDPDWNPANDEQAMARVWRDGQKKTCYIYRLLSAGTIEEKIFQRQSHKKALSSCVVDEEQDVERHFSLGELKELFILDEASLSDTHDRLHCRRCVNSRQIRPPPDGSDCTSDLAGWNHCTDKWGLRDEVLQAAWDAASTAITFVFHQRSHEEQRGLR
# [14] = molecular target: DNA repair protein RAD52 homolog (Homo sapiens, UniProt P43351); type: functional, biochemical
# fMet-Leu-Phe receptor = fMet-Leu-Phe receptor (Homo sapiens, UniProt P21462); assay: FPR ligands, dose response (AID 519); type: functional
# Major prion protein = Major prion protein (Homo sapiens, UniProt P04156); type: functional, cell-based
compound,measurement,setting,value
Cc1c(-c2nc(-c3ccc(C(F)(F)F)cc3)no2)n(C)oc1=O,IC50,[1],1.6 µM (active)
O=C(N/N=C/c1cccs1)c1[nH]nc2c1CCC2,EC50,[2],11 µM (inconclusive)
same,EC50,[3],> 67.5 µM (inactive)
O=S(=O)(CS(=O)(=O)c1ccc(Br)cc1)c1ccc(Br)cc1,IC50,[4],30.4 µM (inactive)
same,IC50,[5],> 123 µM (inactive)
Cn1c(SCc2ccccc2F)nc2cccnc21,EC50,[3],> 67.5 µM (inactive)
COc1ccc(NC(=O)N2CC(=O)N3[C@@H](CO)[C@@H](c4ccc(/C=C/c5ccccc5)cc4)[C@@H]3C2)cc1,AC50,Paired box protein Pax-8,5.52 µM (active)
same,AC50,[6],54.8 µM (active)
same,AC50,[7],7.22 µM (active)
same,AC50,[8],39.1 µM (active)
Cc1ccc(CNC(=O)CCS(=O)(=O)c2ccc(Br)cc2)cc1,IC50,[9],59.1 µM (active)
COc1cccc(CC(=O)Nc2ccc3c(c2)c(=O)n(C)n3-c2ccc(C(C)(C)C)cc2)c1,IC50,[10],> 67.6 µM (inactive)
same,EC50,[11],> 67.6 µM (inactive)
C[C@H]1CN([C@@H](C)CO)S(=O)(=O)c2ccc(C#CC3CCCCC3)cc2O[C@@H]1CN(C)C,AC50,[12],26.4 µM (active)
CN(C)CCNC(=O)c1cccc(-c2cnc3c(NC=O)cc(-c4ccccc4F)cn23)c1,AC50,[13],21.7 µM (active)
same,AC50,[14],3.69 µM (active)
Oc1cc(-c2ccccc2)nc(N2CCN(Cc3ccccc3)CC2)n1,Ki,fMet-Leu-Phe receptor,> 66.7 µM (inactive)
O=C(COc1ccc2ccccc2c1Br)NC(=S)Nc1cccc(CO)c1,IC50,Major prion protein,9.99 µM (active)
same,IC50,cells,98.9 µM (inactive)
